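48-hour exposure; five concentrations; linearly interpolated endpoints. GI50 marks 50% less growth. TGI is the concentration that stops growth completely.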
System: MDA-MB-468 breast
Experiment: NCI tumour cell line growth inhibition, 48 h

Row | Structure (SMILES) | GI50 [nM] | TGI [nM]
1 | CCn1cnc2c(Nc3cccc(Cl)c3)nc(N[C@@H]3CCCC[C@@H]3N)nc21 | 1860 | 4360
2 | COC(=O)C1=C(C(=O)OC)C23C=C(C)C1C2=C(C)C1(CC1)[C@@](C)(O)C3=O (stereo not given in full) | 181 | 421
3 | COc1cc2nc(Nc3cccc(F)c3)nc(Nc3cc(C)[nH]n3)c2cc1OC | 1630 | 3230
4 | COc1cc(-c2cc(-c3nc4ccc(Cl)cc4[nH]3)[nH]n2)cc(OC)c1OC | 2330 | 13500
5 | CC[C@]12C=CCN3CC[C@]4(C(=C(C(=O)OC)C1)Nc1cc5c(cc14)[C@@H]1[C@H](O5)[C@@H](O)[C@@]4(CC)CC(C(=O)OC)=C5Nc6cc(OC)ccc6[C@@]56CCN1[C@@H]46)[C@@H]32 | 94.4 | 1340
6 | COc1ccccc1CNCCCN1C(=O)c2ccc3c4c(ccc(c24)C1=O)C(=O)N(CCCNCCCN)C3=O | 246 | 2240
7 | NCCC(O)(P(=O)(O)O)P(=O)(O)O | > 100000 | > 100000
8 | C=C1C(=O)O[C@H]2[C@H]1CC/C(COC(=O)NCc1c[nH]c3ccc(Cl)cc13)=C\CC[C@@]1(C)O[C@@H]21 | 913 | 2500
9 | COc1ccc(C2=NN(C(C)=O)C(c3cn(-c4ccccc4)nc3-c3ccc(Cl)cc3)C2)cc1 (stereo not given) | > 100000 | > 100000
10 | Cc1ccc(C)c(-c2csc(Nc3ccc(C)c(C)c3)n2)c1 | 63100 | > 100000
11 | COC(=O)CCC/C=C\C[C@H]1C=CC(=O)/C1=C/C[C@@H](O)C/C=C\CC(F)(F)F | 1740 | 3770
12 | C[C@H]1[C@H](C)CC[C@]2(C(=O)O)CC[C@]3(C)C(=CC[C@@H]4[C@@]5(C)C/C(=C/c6ccco6)C(=O)C(C)(C)[C@@H]5CC[C@]43C)[C@H]12 | 4070 | 17400
13 | CC(C)n1c2c([n+](C)c1/C=C/c1ccccc1)C(=O)c1ccccc1C2=O | < 10 | 14.8
14 | N#Cc1ccnc(N2C(=O)CC[C@H]2C(=O)N(c2cncc(F)c2)[C@H](C(=O)NC2CC(F)(F)C2)c2ccccc2Cl)c1 | 28400 | > 100000
15 | CCOC(=O)c1c(C(F)(F)F)n([O-])c2ccc(OC)cc2[n+]1=O | 2580 | 7410
16 | COc1ccc(/C=C/c2n[nH]c3ccc(N4CCOC4=O)cc23)cc1 | 2440 | 4720
17 | CCOC(=O)c1sc(Nc2ccc(Cl)cc2)nc1C | 1560 | 4240
18 | NS(=O)(=O)c1ccc(CCN=C=S)cc1 | 380 | 2860
19 | COc1ccc([N+](=O)[O-])c(S(=O)(=O)c2ccc(Cl)cc2)n1 | 1930 | 4760

Row | Structure (SMILES) | GI50 [nM] | TGI [nM]
20 | C[C@@H]1C=C2C(=O)O[C@@H]3CC[C@H](C1)[C@]23O | 1750 | 5500
21 | O=C(CCCCCCNC(=O)C(O)(O)C(F)(F)F)Nc1ccc(Br)cc1 | 821 | 2680
22 | CSc1nc2sc3cc(Cl)ccc3n2c(=N)c1C#N | 2130 | 20000
23 | Cc1ccc(S(=O)(=O)N2CCc3ccc(O)c4c3C2Cc2cc(Cl)ccc2-4)cc1 (stereo not given) | 707 | 1920
24 | Cn1cc(C2=C(c3cn(CCN)c4ccccc34)C(=O)NC2=O)c2ccccc21 | 4730 | 13400
25 | COc1ccc(-c2nc(-c3nc4ccc(OC)cc4[nH]3)cc3c2[nH]c2ccccc23)cc1 | 3160 | > 100000
26 | COc1cc(C(=O)c2cc3c(cc2C)OCO3)cc(OC)c1OC | 31.1 | 
27 | Nc1c(C(=O)Nc2ccccc2Cl)sc2nc3c(cc12)CCCCCC3 | 2250 | 12000
28 | Nc1ccc(/C=N/Nc2ccnc3c(N)cccc23)c2cccnc12 | 1390 | 2990
29 | CC(=O)OC[C@]12CC[C@@H](C(=O)/C=C/c3cccnc3)[C@@H]1[C@H]1CC[C@@H]3[C@@]4(C)CC[C@H](OC(C)=O)C(C)(C)[C@@H]4CC[C@@]3(C)[C@]1(C)CC2 | 1770 | 4410
30 | CCCc1nc2c(C)cc(-c3nc4ccccc4n3C)cc2n1Cc1ccc(-c2ccccc2C(=O)O)cc1 | 37400 | > 100000
31 | CCCCCCCC[N+](C)(CCCCCCCC)CCCCCCCC | 202 | 901
32 | COC1=CC(c2ccc[nH]2)=N/C1=C\c1[nH]c(C)c(C(=O)CCCCC(=O)Nc2ccccc2)c1C | 1720 | 3660
33 | Cc1[nH]c(=O)[nH]c(=O)c1CO | > 100000 | > 100000
34 | COc1ccc(NC(=O)c2sc3nc(C)c(C(O)c4ccccc4)cc3c2N)cc1 (stereo not given) | 1900 | 70100
35 | COc1cc(/C=C2\COc3ccc(O)c(O)c3C2=O)cc(OC)c1 | 1910 | 6690
36 | C=C(C)[C@@H]1CC[C@]2(C)[C@H](CC[C@@H]3[C@H]4[C@H]5OC[C@@]4(CCC5(C)C)CC[C@]32C)[C@@]1(C)CCCN | 1580 | 3050
37 | CC(=O)N=c1ccc2nc3c(cc(N)c4ccccc43)oc-2c1 | 274 | 1400
38 | CCCN(CCC)c1ccc(/C=N/NC(=O)c2cccnc2)c(Cl)c1 | 197 | 631

Source: PubChem BioAssay (NCI)
